Results on one compound are retold here after US20190365771A1, “APILIMOD COMPOSITIONS AND METHODS FOR USING SAME IN THE TREATMENT OF ALZHEIMER'S DISEASE” (AI Therapeutics, Inc., priority 2016, published 2019).

In assay [1] the test system is Hela cells transiently transfected with C99 APP truncated mutant (C99). The assay can be described thus: Ab 40 ELISA of supernatants of Hela cells transfected with C99 construct. Type of assay: cell-based, human. The settings on record: treated two days with 10000, 1000, 100, 1 nM, FIG. 2. The text has this: (§1) The Amyloid precursor protein (APP) can be processed by proteases, first by beta secretase (BACE1) then followed by gamma secretase to generate peptide fragments including sizes of 40 and 42 amino acids named abeta (Ab), e.g. Ab 1-40 and Ab 1-42. Several familial Alzheimer disease-related mutations and truncated mutants in the APP gene have been described in the investigation of APP processing to Ab in vitro and in vivo. […] Briefly, two constructs were used to generate Ab:(1) APP Swedish/Indiana double mutant (APPSw-I) in the 695 amino acid APP construct combines the Swedish mutant APP K670N, M671L (Mullan M et al, A pathogenic mutation for probable Alzheimer's disease in the APP gene at the N-terminus of beta-amyloid. Nat Genet., 1992 August; 1(5):345-7) and the Indiana mutation APP V717F (Suzuki N et al, An increased percentage of long amyloid beta protein secreted by familial amyloid beta protein precursor (beta APP717) mutants. Science, 1994 May 27; 264(5163): 1336-40); and (2) C99 APP truncated mutant (C99) fragment encoding the last 99-aa of APP 695, this construct mimics the BACE1 cleaved APP at the major Asp+1 site of Aβ to generate C99. […]
Background: ELISA stands for enzyme-linked immunosorbent assay.

For assay [2], the system named is Hela cells transiently transfected with APP Swedish/Indiana double mutant (APPSw-I). The assay can be described thus: Ab 40 ELISA of supernatants of Hela cells transfected with APPSw-I construct. Type of assay: cell-based, human. The settings on record: treated two days with 10000, 1000, 100, 1 nM, FIG. 1.
Source text: as §1

The structures appear in SMILES notation.

Turning to `Cc1cccc(/C=N/Nc2cc(N3CCOCC3)nc(OCCc3ccccn3)n2)c1` [apilimod], the “Ab concentration in cell culture supernatant” value in assay [1] and in assay [2] was “dose dependent decrease of Ab” each time.
